Data as given in the supplement of paper PMC10307832.

How the values were obtained:
Test in all cases: relative viability (nuclei count vs DMSO), 5 days (fraction); higher = more cells survive
Obatoclax + AZD7762 = compound: COC1=CC(c2cc3ccccc3[nH]2)=N/C1=C\c1[nH]c(C)cc1C [Obatoclax] + NC(=O)Nc1cc(-c2cccc(F)c2)sc1C(=O)N[C@H]1CCCNC1 [AZD7762] (partner 0.2 µM)
Method in brief: (§1)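 Five library-drug doses in √10 steps were combined with a fixed anchor-drug dose, or a single drug was given alone, by pin tool to lung cancer cell lines in 1536-well plates the day after seeding. Nuclei were stained and counted after 5 days. Relative viability is the nuclei count in treated wells over that in vehicle wells, taken as the median of duplicate plates.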

[1] = compound: CC1=CC(=NN1)NC2=CC(=NC(=N2)/C=C/C3=CC=CC=C3)N4CCN(CC4)C + CS(=O)(=O)CCNCc1ccc(-c2ccc3ncnc(Nc4ccc(OCc5cccc(F)c5)c(Cl)c4)c3c2)o1 [Lapatinib] (partner 2 µM)
Method in brief: as §1

Bortezomib + Luminespib = compound: CC(C)C[C@H](NC(=O)[C@H](Cc1ccccc1)NC(=O)c1cnccn1)B(O)O [Bortezomib] + CCNC(=O)c1noc(-c2cc(C(C)C)c(O)cc2O)c1-c1ccc(CN2CCOCC2)cc1 [Luminespib] (partner 0.01 µM)
Method in brief: as §1

Bortezomib + Alpelisib = compound: CC(C)C[C@H](NC(=O)[C@H](Cc1ccccc1)NC(=O)c1cnccn1)B(O)O [Bortezomib] + Cc1nc(NC(=O)N2CCC[C@H]2C(N)=O)sc1-c1ccnc(C(C)(C)C(F)(F)F)c1 [Alpelisib] (partner 2 µM)
Method in brief: as §1

Cell Line	relative viability (Obatoclax + AZD7762; first compound 0.01 µM)	relative viability (Obatoclax + AZD7762; first compound 0.03162 µM)	relative viability (Obatoclax + AZD7762; first compound 0.1 µM)	relative viability (Obatoclax + AZD7762; first compound 1 µM)	relative viability ([1]; first compound 0.08 µM)	relative viability ([1]; first compound 0.253 µM)	relative viability ([1]; first compound 0.8 µM)	relative viability ([1]; first compound 2.53 µM)	relative viability ([1]; first compound 8 µM)	relative viability (Bortezomib + Luminespib; first compound 0.0002 µM)	relative viability (Bortezomib + Luminespib; first compound 0.000632 µM)	relative viability (Bortezomib + Luminespib; first compound 0.002 µM)	relative viability (Bortezomib + Luminespib; first compound 0.006325 µM)	relative viability (Bortezomib + Luminespib; first compound 0.02 µM)	relative viability (Bortezomib + Alpelisib; first compound 0.000632 µM)	relative viability (Bortezomib + Alpelisib; first compound 0.002 µM)	relative viability (Bortezomib + Alpelisib; first compound 0.006325 µM)	relative viability (Bortezomib + Alpelisib; first compound 0.02 µM)	relative viability (Obatoclax + AZD7762; first compound 0.3162 µM)	relative viability (Bortezomib + Alpelisib; first compound 0.0002 µM)
LK-2	0.456	0.374	0.444	0.568	0.885	0.852	0.852	0.604	0.181	0.182	0.186	0.238	0.182	0.172	1.01	0.263	0.256	0.27	–	–
LOU-NH91	0.703	0.717	0.646	0.539	0.669	0.785	0.698	0.567	0.333	0.352	0.312	0.279	0.252	0.231	0.628	0.395	0.309	0.305	0.667	0.72
LU99A	0.379	0.359	–	0.135	0.958	0.943	0.728	0.252	0.125	0.227	0.178	0.231	0.24	0.184	–	0.466	0.224	0.141	0.146	0.424
LXF-289	1.03	1.07	1.14	1.09	0.918	0.969	0.839	0.487	0.574	0.68	0.598	0.639	0.138	0.074	1.01	0.946	0.0804	0.0589	1.1	1.03
NCI-H23	0.271	0.313	0.192	0.158	0.981	1.37	1	0.46	0.139	0.224	0.208	0.208	0.18	0.169	0.72	0.829	0.116	0.109	0.219	–
NCI-H322M	0.538	0.556	0.549	0.4	0.56	0.67	0.507	0.321	0.208	0.736	–	0.729	0.386	0.322	–	0.713	0.731	1.38	0.399	0.771
NCI-H358	0.519	0.438	0.543	0.224	0.511	0.471	0.335	0.147	0.134	0.285	–	0.349	0.307	0.0995	0.873	0.613	0.161	0.162	0.307	0.782
NCI-H460	0.651	0.537	–	0.11	0.909	0.952	0.943	0.0124	0.0122	0.0335	0.0348	0.033	0.0295	0.0196	0.455	0.515	0.125	0.0093	0.617	0.419
